In PubChem BioAssay AID1903 (Southern Research Specialized Biocontainment Screening …, 2009):
pIC50: −log10 of the molar value.

What follows are molecules tested against Large T antigen (Simian virus 40) (UniProt P03070) (assay: SV40 large T antigen inhibitors, biochemical (AID 1903)). Settings: SV40 large T antigen ATPase/helicase inhibition assay.
Large T antigen (Simian virus 40), sequence (P03070 whole entry, looked up): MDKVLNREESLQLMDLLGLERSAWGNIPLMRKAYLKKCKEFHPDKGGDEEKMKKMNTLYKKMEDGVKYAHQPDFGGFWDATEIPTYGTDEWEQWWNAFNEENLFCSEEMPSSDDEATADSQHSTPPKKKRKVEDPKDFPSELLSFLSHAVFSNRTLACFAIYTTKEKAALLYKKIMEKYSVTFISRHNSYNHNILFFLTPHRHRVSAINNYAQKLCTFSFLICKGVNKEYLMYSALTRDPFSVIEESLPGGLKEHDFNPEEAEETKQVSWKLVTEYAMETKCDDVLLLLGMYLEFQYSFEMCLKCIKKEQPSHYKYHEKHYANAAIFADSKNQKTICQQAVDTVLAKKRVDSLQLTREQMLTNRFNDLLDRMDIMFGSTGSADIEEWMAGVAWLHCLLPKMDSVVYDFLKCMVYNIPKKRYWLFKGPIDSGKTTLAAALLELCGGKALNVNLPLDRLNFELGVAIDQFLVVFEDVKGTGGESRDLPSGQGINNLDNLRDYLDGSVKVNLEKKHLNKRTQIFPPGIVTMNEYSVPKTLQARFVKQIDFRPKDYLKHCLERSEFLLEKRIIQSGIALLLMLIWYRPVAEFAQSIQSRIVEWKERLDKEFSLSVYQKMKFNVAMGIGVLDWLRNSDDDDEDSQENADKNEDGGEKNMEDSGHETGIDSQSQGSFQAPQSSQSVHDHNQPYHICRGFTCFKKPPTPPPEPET

Question: With `C[c-]1[c-](C)[c-](C)[c-](C)[c-]1C.[Fe].c1cc2nccc(N3CCCC3)[c-]2c1` (centres undefined) as the molecule, how does the pIC50 read?
Answer: 4.76

Question: `C#CCOCCOCCOCCNc1nc(N2CCN(C(=O)CCCCCCCCCCNC(=O)[C@H]([C@@H](C)CC)n3cc(CCCCN=C(N)N)nn3)CC2)nc(N2CCN(C(=O)CCCCCCCCCCNC(=O)[C@H]([C@@H](C)CC)n3cc(CCCCN=C(N)N)nn3)CC2)n1` was tested. Which pIC50 did it give?
Answer: 5.29

Question: How did the pIC50 turn out when `C#CCOCCOCCOCCNc1nc(N2CCN(C(=O)CCCCCCCCCCNC(=O)[C@H]([C@@H](C)CC)n3cc(CCCCN=C(N)N)nn3)CC2)nc(N2CCN(C(=O)CCCCCCCCCCNC(=O)[C@H](CCCCN)n3cc(C[C@@H](C)CC)nn3)CC2)n1` was run?
Answer: 4.88

Question: With `O=C(O)CCC1c2cc3c4cc2OC2Oc5cc6c(cc51)C(CCC(=O)O)c1cc5c7cc1OC(O6)c1cc6cc(c1)Oc1cc(cc(C(=O)O)c1)Oc1cc8cc(c1)C(Oc1cc(c(cc1C5CCC(=O)O)C3CCC(=O)O)OC(O4)c1cc(cc(c1)Oc1cc(cc(C(=O)O)c1)O8)Oc1cc(cc(C(=O)O)c1)Oc1cc(cc2c1)Oc1cc(cc(C(=O)O)c1)O6)O7` (centres undefined) as the molecule, how does the pIC50 read?
Answer: > 6.41

Question: `C#CCOCCOCCOCCNc1nc(N2CCN(C(=O)CCCCCCCCCCNC(=O)[C@H]([C@@H](C)CC)n3cc(CCCCN=C(N)N)nn3)CC2)nc(N2CCN(C(=O)CCCCCCCCCCNC(=O)[C@H](CCCN=C(N)N)n3cc(C[C@@H](C)CC)nn3)CC2)n1` was tested. Which pIC50 did it give?
Answer: 4.99

Question: With `CCCCC1(C)OC(=O)C(=Cc2ccc(-c3ccc(Cl)c(C(=O)O)c3)o2)C(=O)O1` (centres undefined) as the molecule, how does the pIC50 read?
Answer: 4.76

Question: With `C#CCOCCOCCOCCNc1nc(N2CCN(C(=O)CCCCCCCCCCNC(=O)[C@H](CCCN=C(N)N)n3cc(C[C@@H](C)CC)nn3)CC2)nc(N2CCN(C(=O)CCCCCCCCCCNC(=O)[C@@H]([C@H](C)CC)n3cc(CCCCCN)nn3)CC2)n1` as the molecule, how does the pIC50 read?
Answer: 4.73

Question: How did the pIC50 turn out when `O=C(O)c1cc[c]([Hg][Cl])cc1` was run?
Answer: 5.90

Question: How did the pIC50 turn out when `C[CH2][Hg][S]c1ccccc1C(=O)O` was run?
Answer: 4.49
